Source: patent US8066980B2, “Osteogenic synthetic peptides, pharmaceutical compositions comprising the same, and medium containing the same” (Industry Foundation of Chonnam National University, priority 2008, dated 2011)
Where a SMILES comes first, the peptide text is derived from it.

B1: BMP-7: bone morphogenetic protein-7, known as an osteogenesis promoter; comparator (protein, UniProt P18075 293-431, looked up)
Bone morphogenetic protein 7: STGSKQRSQNRSKTPKNQEALRMANVAENSSSDQRQACKKHELYVSFRDLGWQDWIIAPEGYAAYYCEGECAFPLNSYMNATNHAIVQTLVHFINPETVPKPCCAPTQLNAISVLYFDDSSNVILKKYRNMVVRACGCH

Legend:
[1] = test system: cells; assay: MTT assay for cytotoxicity; assay type: cell-based; settings: within a range of used concentrations
[2] = test system: surface marker CD44; assay: Fluorescence microscopy of surface marker CD44; assay type: cell-based, mouse; settings: at the same concentrations
Excerpt: The effects of BFP 1 and BFP 2 on the expression of the surface marker CD44 were observed under a fluorescence microscope and the results are given in FIGS. 10a and 10b.
During differentiation, the cells were stained with DAPI, a fluorescent stain that easily binds to the DNA of living cells, and with a PE(phycoerythrin)-conjugated-CD44 antibody.

| Molecule | cytotoxicity (MTT assay) [1] | CD44 staining intensity compared with BFP 1 or BFP 2 [2] |
| --- | --- | --- |
| CC(C)[C@H](N)C(=O)N[C@@H](CCC(=O)O)C(=O)N[C@@H](Cc1c[nH]cn1)C(=O)N[C@@H](CC(=O)O)C(=O)N[C@@H](CCCCN)C(=O)N[C@@H](CCC(=O)O)C(=O)N[C@@H](Cc1ccccc1)C(=O)N[C@@H](Cc1ccccc1)C(=O)N[C@@H](Cc1c[nH]cn1)C(=O)N1CCC[C@H]1C(=O)N[C@@H](CCCNC(=N)N)C(=O)N[C@@H](Cc1ccc(O)cc1)C(=O)N[C@@H](Cc1c[nH]cn1)C(=O)N[C@@H](Cc1c[nH]cn1)C(=O)N[C@@H](CCCNC(=N)N)C(=O)O [BFP 2, Val-Glu-His-Asp-Lys-Glu-Phe-Phe-His-Pro-Arg-Tyr-His-His-Arg] (H-VEHDKEFFHPRYHHR-OH) | neither BFP 1 nor BFP 2 are toxic to cells |  |
| CC(C)[C@H](NC(=O)[C@H](C)NC(=O)[C@H](CCCCN)NC(=O)[C@H](Cc1ccc(O)cc1)NC(=O)[C@@H]1CCCN1C(=O)[C@H](Cc1ccc(O)cc1)NC(=O)[C@H](CO)NC(=O)[C@H](Cc1ccccc1)NC(=O)CNC(=O)[C@H](CCC(N)=O)NC(=O)CN)C(=O)N[C@@H](Cc1ccccc1)C(=O)N[C@@H](CO)C(=O)N[C@H](C(=O)N[C@@H](CCC(N)=O)C(=O)O)[C@@H](C)O [BFP 1, Gly-Gln-Gly-Phe-Ser-Tyr-Pro-Tyr-Lys-Ala-Val-Phe-Ser-Thr-Gln] (H-GQGFSYPYKAVFSTQ-OH) | neither BFP 1 nor BFP 2 are toxic to cells |  |
| B1 |  | less intense staining |
